# Laboratory results published in patent publication US20150125457A1, “BONE REPAIR PROMOTER” (DAIICHI SANKYO COMPANY, LIMITED, priority 2012, published 2015).
# Several values for one entry are separate records, joined by “and”; a condition that tells them apart may be missing. Equal values may be shown once.
# Legend:
# Assay type in all cases: in vivo
# [1] = system: rat closed femur fracture model; assay: Rat closed femur fracture model, torsion test of femur strength; settings: 4 weeks after fracture
# Excerpt: A 10-week-old male Wistar rat (Charles River Laboratories Japan, Inc.) was anesthetized by isoflurane inhalation (inhalation of 5%, and retention of 2%), and retained in a supine position. The peripheral portion of the left knee was shaved with a clipper, and disinfected with Hibitane. About 2 cm of the skin of the left knee on the upside of the patella was incised. About 5 mm of the joint capsule was incised along with the outer edge of the patella, and then the patella was dislocated inward from the trochlear groove. A 22G injection needle was inserted into the medullary cavity in the center of the trochlear groove, and pulled out. Into the hole, a Kirschner wire (MIZUHO Corporation) having a diameter of 1 mm, which had been cut to 32 mm in advance was fully inserted in the medullary cavity of the femur. The joint capsule and the incised part of the skin were sutured with nylon suture (Alfresa Pharma Corporation). The left hind limb was fixed to an Einhorn type of bone fracture preparation device (special order item), and mechanical stress was added to the femur by dropping a weight from a predetermined position to prepare the bone fracture. Soft X-ray images of the hind limb were taken by using CT for animals (LCT-200, Hitachi Aloka Medical, Ltd.), and as a result it was confirmed that transverse fracture was prepared in the vicinity of the center of the femur. For the infection prevention, potassium penicillin G (Meiji Seika Pharma Co., Ltd.) was administered intramuscularly. CNP derivative A was administered subcutaneously once a day at a dose of 0.42 mg/kg/day for 7 days from one day after the surgery. Vehicle was administered to the control group. 4 weeks after the preparation of the bone fracture, the animal was anesthetized by isoflurane inhalation, retained in a supine position, and then bled for the euthanasia. The left and right femurs were resected, immersed in a physiological saline solution, and cryopreserved in a freezer. The femurs were thawed at a later date, subjected to torsion test using a bone strength meter (MZ-500S, MARUTO INSTRUMENT CO., LTD.), and the strength of the femur was measured. The test was performed in 12 cases in each group.
# rat femur fracture model [2] = assay: Rat femur fracture model, soft X-ray radiography of femurs; settings: 10 or 100 nmol/kg s.c. once per day for 8 weeks; FIG. 1
# Procedure: A fracture model was surgically prepared at the left femoral diaphysis of a 6-week-old female SD strain (Crl: CD) IGS rat. A barbital-based anesthetic agent (Somnopentyl®, Kyoritsu Seiyaku Corporation) was intraperitoneally administered to an animal in order to anesthetize the animal. Isoflurane (Escain, Mylan Inc.) inhalation anesthesia was performed as an adjunct to anesthesia. The skin on the upside of the knee joint was incised, exfoliation was performed between the rectus femoris muscle and the vastus lateralis muscle to expose the femur. At around 0.5 mm distal from the center of the femoral diaphysis, the diaphysis was completely cut in cross-section by a bone cutter (Osada Equipment Co., Ltd.). […] For the resected bone, the bone length, and the callus size in the fracture site were measured, the left and right femurs were subjected to soft X-ray radiography, and then the healing state in the fracture site was determined. […] At 2, 4, and 6 weeks after the administration, one from each of the cases was sampled for follow-up, further the one in the control group, which had shown nonunion-like symptoms, was excluded from the evaluation, and eventually the results were evaluated as a group of 10 rats.
# rat femur fracture model [3] = assay: Rat femur fracture model (surgically cut femoral diaphysis), three-point bending bone strength test; settings: for Break deformation / Break energy / Break strength / Maximum load / Stiffness (Δ70%-20%) / Break deformation, left/right ratio / Break energy, left/right ratio / Break strength, left/right ratio / Maximum load, left/right ratio / Stiffness (Δ70%-20%), left/right ratio: mean ± SD, N=10; for Break deformation, left/right ratio / Break energy, left/right ratio / Break strength, left/right ratio / Maximum load, left/right ratio / Stiffness (Δ70%-20%), left/right ratio: ratio of left/right femurs
# Procedure: (§1) A fracture model was surgically prepared at the left femoral diaphysis of a 6-week-old female SD strain (Crl: CD) IGS rat. A barbital-based anesthetic agent (Somnopentyl®, Kyoritsu Seiyaku Corporation) was intraperitoneally administered to an animal in order to anesthetize the animal. Isoflurane (Escain, Mylan Inc.) inhalation anesthesia was performed as an adjunct to anesthesia. The skin on the upside of the knee joint was incised, exfoliation was performed between the rectus femoris muscle and the vastus lateralis muscle to expose the femur. At around 0.5 mm distal from the center of the femoral diaphysis, the diaphysis was completely cut in cross-section by a bone cutter (Osada Equipment Co., Ltd.). After that, an injection needle 21G was inserted into the bone marrow between the greater trochanter and the femur neck of the left femur, and the muscle and the skin were sutured with 2 to 3 stitches. For the prevention of post-operative suppuration, potassium penicillin G for injection (Meiji Seika Kaisha, Limited) was administered as an antibiotic, and the suture site of the skin was disinfected with povidone-iodine (Isodine®, Meiji Seika Kaisha, Limited). As the test substance, CNP derivative A (SEQ ID NO: 13: the SEQ ID NO: 157 of the publication of US patent application US 2010-305031, produced by a method described in the publication) was used for repeated subcutaneous administration at 10 or 100 nmol/kg once per day for 8 weeks. Vehicle was administered to the control group. On the next day after the administration end date, the left and right femurs and the left and right tibiae were resected. For the resected bone, the bone length, and the callus size in the fracture site were measured, the left and right femurs were subjected to soft X-ray radiography, and then the healing state in the fracture site was determined. After that, a three-point bending strength test was performed by using a bone strength measuring device MZ-500S (MARUTO INSTRUMENT CO., LTD.), and a bone strength testing system CTR win Ver. 1.21 (System Supply Co., Ltd.). The bone after finishing the measurements was fixed with 10% neutral buffered formalin, and the pathologic sample was prepared and observed. The administration was performed to a group of 14 rats including spare rats. At 2, 4, and 6 weeks after the administration, one from each of the cases was sampled for follow-up, further the one in the control group, which had shown nonunion-like symptoms, was excluded from the evaluation, and eventually the results were evaluated as a group of 10 rats.
# rat femur fracture model [4] = assay: Rat femur fracture model, tissue observation in the femur fracture site
# Procedure: as §1
# [5] = 10 nmol/kg s.c. once per day for 8 weeks, fractured left femur
# [6] = 10 nmol/kg s.c. once per day for 8 weeks
# [7] = 10 nmol/kg s.c. once per day for 8 weeks, untreated right femur
# [8] = 100 nmol/kg s.c. once per day for 8 weeks, fractured left femur
# [9] = 100 nmol/kg s.c. once per day for 8 weeks
# [10] = 100 nmol/kg s.c. once per day for 8 weeks, untreated right femur
# [11] = 10 nmol/kg, 8-week administration, left femur fracture site, grade 0-5, mean ± SD, N=10
# [12] = 100 nmol/kg, 8-week administration, left femur fracture site, grade 0-5, mean ± SD, N=10
# [13] = 100 nmol/kg, 8 weeks, compared to the control group
substance,measurement,setting,value
"CNP derivative A: CNP (1-22) Ghrelin (12-28, E17D): SEQ ID NO: 13; SEQ ID NO: 157 of US 2010-305031 (GLSKGCFGLKLDRIGSMSGLGCVQQRKDSKKPPAKLQPR; Chimeric CNP J (SEQ ID NO157) of US2010-305031 and WO2009/142307, and CNP derivative A of current invention.)",Share of individuals whose fractured left femur showed the reference value (3 N×mm/deg) or more,"[1]; 0.42 mg/kg/day s.c. for 7 days, 12 individuals, vehicle 33%",83%
same,Number of individuals whose fractured left femur showed the reference value (3 N×mm/deg) or more,"[1]; 0.42 mg/kg/day s.c. for 7 days, out of 12 individuals",10 individuals
same,Healing rate of the fracture,"[1]; 0.42 mg/kg/day s.c. for 7 days, versus vehicle",significantly improved
same,Strength of the left femur to which bone fracture had been prepared (torsion test stiffness),"[1]; 0.42 mg/kg/day s.c. once a day for 7 days from one day after surgery, 12 cases",almost the same as that of the untreated right femur
same,Continuity of the cortical bone in soft X-ray images of femurs,rat femur fracture model [2],tendency for enhanced continuity of the cortical bone
same,Remaining fracture line in soft X-ray images of femurs,rat femur fracture model [2],decreasing tendency for the fracture line to remain
same,Break deformation,rat femur fracture model [3]; [5],1.15 ± 0.58 mm
same,Break energy,rat femur fracture model [3]; [5],45.91 ± 26.15 N.mm
same,Break strength,rat femur fracture model [3]; [5],72.05 ± 30.40 N
same,Maximum load,rat femur fracture model [3]; [5],81.98 ± 34.64 N
same,Stiffness (Δ70%-20%),rat femur fracture model [3]; [5],138.36 ± 89.14 N/mm
same,"Break deformation, left/right ratio",rat femur fracture model [3]; [6],1.15 ± 0.57
same,"Break energy, left/right ratio",rat femur fracture model [3]; [6],0.75 ± 0.33
same,"Break strength, left/right ratio",rat femur fracture model [3]; [6],0.80 ± 0.33
same,"Maximum load, left/right ratio",rat femur fracture model [3]; [6],0.86 and 0.86 ± 0.35
same,"Stiffness (Δ70%-20%), left/right ratio",rat femur fracture model [3]; [6],0.75 ± 0.48
same,Break deformation,rat femur fracture model [3]; [7],0.99 ± 0.15 mm
same,Break energy,rat femur fracture model [3]; [7],59.55 ± 12.33 N.mm
same,Break strength,rat femur fracture model [3]; [7],89.22 ± 6.58 N
same,Maximum load,rat femur fracture model [3]; [7],95.08 ± 5.29 N
same,Stiffness (Δ70%-20%),rat femur fracture model [3]; [7],187.11 ± 32.64 N/mm
same,Break deformation,rat femur fracture model [3]; [8],1.04 ± 0.45 mm
same,Break energy,rat femur fracture model [3]; [8],53.90 ± 24.24 N.mm
same,Break strength,rat femur fracture model [3]; [8],80.02 ± 15.97 N
same,Maximum load,rat femur fracture model [3]; [8],87.59 ± 19.00 N
same,Stiffness (Δ70%-20%),rat femur fracture model [3]; [8],162.09 ± 105.67 N/mm
same,"Break deformation, left/right ratio",rat femur fracture model [3]; [9],1.02 ± 0.38
same,"Break energy, left/right ratio",rat femur fracture model [3]; [9],0.90 and 0.90 ± 0.36
same,"Break strength, left/right ratio",rat femur fracture model [3]; [9],1.06 ± 0.33
same,"Maximum load, left/right ratio",rat femur fracture model [3]; [9],1.03 and 1.03 ± 0.28
same,"Stiffness (Δ70%-20%), left/right ratio",rat femur fracture model [3]; [9],0.85 ± 0.64
same,Break deformation,rat femur fracture model [3]; [10],1.01 ± 0.17 mm
same,Break energy,rat femur fracture model [3]; [10],60.82 ± 13.73 N.mm
same,Break strength,rat femur fracture model [3]; [10],77.75 ± 10.46 N
same,Maximum load,rat femur fracture model [3]; [10],86.89 ± 10.96 N
same,Stiffness (Δ70%-20%),rat femur fracture model [3]; [10],200.64 ± 43.22 N/mm
same,"Break energy in a fracture site of the left femur, dose dependence","rat femur fracture model [3]; 10 and 100 nmol/kg s.c. once per day for 8 weeks, versus vehicle",increased CNP derivative A-dose dependently
same,Callus Amount,rat femur fracture model [4]; [11],2.1 ± 1.0 Grade
same,Callus Cartilage,rat femur fracture model [4]; [11],1.5 ± 2.0 Grade
same,Callus Continuity,rat femur fracture model [4]; [11],3.2 ± 2.1 Grade
same,Cortical bone/bone marrow areas Cancellous bone,rat femur fracture model [4]; [11],2.9 ± 1.7 Grade
same,Cortical bone/bone marrow areas Cartilage,rat femur fracture model [4]; [11],0.9 ± 1.7 Grade
same,Cortical bone/bone marrow areas Connective tissue,rat femur fracture model [4]; [11],0.7 ± 1.6 Grade
same,Cortical bone/bone marrow areas Osteoclasts,rat femur fracture model [4]; [11],0.6 ± 1.1 Grade
same,Callus Amount,rat femur fracture model [4]; [12],2.3 ± 1.2 Grade
same,Cortical bone/bone marrow areas Cancellous bone,rat femur fracture model [4]; [12],3.0 ± 1.1 Grade
same,Cortical bone/bone marrow areas Continuity,rat femur fracture model [4]; [12],2.7 ± 1.8 Grade
same,Grade of cartilage formation,rat femur fracture model [4]; [13],tendency for a decreasing grade of cartilage formation
same,Grade of ossification of the callus,rat femur fracture model [4]; [13],tendency for an increasing grade of ossification of the callus
same,Repair of the bone cut region,"rat femur fracture model [4]; overall conclusion of tissue observation, 8 weeks after fracture",promoted
